According to US20240103005A1, “N-ACRYLOYLINDOLES AND METHODS OF USE” (The University of Hong Kong, priority 2022, published 2024):
“Also recorded” adds a separate entry of the source.

Tests used:
HepG2 cells = experiment: Imaging a decrease in free thiol level in HepG2 cells under oxidative stress; type: cell-based; conditions: 10 min; for fluorescence from labeling of free thiols, solvent control cells: 50 μM, same imaging parameters; for change in cellular fluorescence intensity upon H2O2 pretreatment: H2O2 0.5 or 1 mM 15 min, probe 50 μM
Method: Imaging a Decrease in Free Thiol Level in HepG2 Cells Under Oxidative Stress by NAIA-5 or IAA
HepG2 cells were plated on a 8-well Nunc Lab-Tek chambered slide system and allowed to grow in complete medium at 37° C. with 5% CO2 to ca. 70% confluency. The cells were then pretreated with solvent vehicles, H2O2 (0.5 or 1 mM) or H2O2 (1 mM)+NAC (5 mM) in complete medium for 15 min at 37° C. The cells were washed with PBS and incubated with NAIA-5 or IAA (50 μM) in complete medium for 10 min at 37° C. After that, the cells were washed with PBS and fixed by 4% paraformaldehyde in PBS at room temperature for 15 min. The fixed cells were washed with PBS, permeabilized by PBS with 0.5 vol % Triton X-100 at room temperature for 30 min, washed again with PBS and incubated with a master mix solution containing CuSO4, THTPA, azide-fluor 545 and sodium ascorbate at final concentrations of 100, 500, 20 and 5000 μM respectively. After incubation in dark at room temperature for 1 h, the cells were washed with PBS and stained by Hoechst 33342 in PBS (final concentration=8.2 μM) at room temperature for 15 min. The cells were washed thrice with PBS and then imaged in PBS by confocal fluorescence microscopy.
Confocal fluorescence microscopy imaging was performed with a Zeiss laser scanning microscope 880 with a 20× water-immersion objective lens using ZEN 2.3 (Black Version) software (Carl Zeiss) with 3× magnification zoom-in. Hoechst 33342 was excited with a 405 nm diode laser, and emission was collected on a META detector between 371 and 507 nm. Fluor 545 was excited by a 561 nm diode laser and emission was collected on a META detector between 576 and 683 nm. Image analysis was performed by use of ImageJ. A region of interest (ROI) was created around individual cell, and cellular fluorescence intensity was measured. The reported average cellular fluorescence intensity was determined by averaging the measured intensity from 30 different cells from 3 different biological replicates/group. Statistical analyses were performed with a two-tailed Student's t-test (MS Excel).
These attractive features indicate the good potential of using NAIs/NAIAs to trap cellular thiols in live cells that should allow better identification of cysteine oxidative modifications. To explore this potential application, we first sought to capture and image free thiols by NAIA-5 in live HepG2 cells by confocal fluorescence microscopy (FIG. 4A). HepG2 cells were pretreated with solvent vehicles, H2O2 or H2O2+N-acetyl cysteine (NAC), where NAC can scavenge H2O2 and relieve the oxidative stress in the HepG2 cells. After the pretreatment, the cells were incubated with NAIA-5 or IAA (50 μM) for 10 min to ligand and snap-shot free cellular thiols. […]

[1] = Selectivity for reacting with Cys over other amino acids (LC-MS); type: physicochemical; conditions: compound 10 μM, amino acid 30 μM (3 equiv.), 30 min, PBS/MeOH 4:1
Method: Selectivity of NAI for Reacting with Cys Over Other Amino Acids
Stock solution of NAIA-4 and NAIA-5, respectively, in DMSO was diluted by PBS/MeOH solution mixture (4:1, v/v; 500 μL), reaching final concentration of 10 μM. Stock solution of amino acid in DMSO was then freshly prepared, and added to the compound solution at final concentration of 30 μM. The solution mixture was incubated at room temperature for 30 min. After that, an aliquot of the reaction mixture (10 μL) was sent for LC-MS analysis. Selected ion chromatograms, with m/z=325 corresponding to [NAIA-4+H]^+ or [NAIA-5+H]^+, were extracted and analyzed by integrating the area under curve.
As fast-reacting probes are often susceptible to hydrolysis, we sought to investigate the aqueous stability of NAIA-C5 amide. […] Taking the excellent reaction kinetics and a mere 14% degradation in 30 min into account, NAIA-C5 amide was considered to be a useful tool in cysteine profiling (FIG. 17C and FIG. 17F).

[2] = Reaction kinetics of cysteine-reactive compounds with N-acetyl-L-cysteine methyl ester (LC-MS); type: physicochemical
Method: Reaction Kinetics of Cysteine-Reactive Compounds with N-Acetyl-L-Cysteine Methyl Ester
Stock solution of cysteine-reactive compound in DMSO was diluted by PBS/MeOH solution mixture (4:1, v/v; 500 μL), reaching final concentration of 10 μM. Stock solution of N-acetyl-L-cysteine methyl ester in DMSO was then freshly prepared, and added to the compound solution at final concentration of 250 μM. The solution mixture was incubated at room temperature, and at predetermined time intervals, an aliquot of the reaction mixture (10 μL) was sent for LC-MS analysis on Waters Autopurification System using a SunFire C18 HPLC column (50×4.6 mm with 5 μm diameter particles, Waters). Separation was achieved by gradient elution from 5% to 100% MeCN in water (constant 0.1 vol % formic acid) over 4 min, isocratic elution with 100% MeCN (with 0.1 vol % formic acid) from 4 to 8 min, and returning to 5% MeCN in water (with 0.1 vol % formic acid) and equilibrated for 2 min. Selected ion chromatograms, with m/z corresponding to the molecular ion of the compound and/or the adduct, were extracted and the data was analyzed using MassLynx™ software by calculating the area under the curve. The peak area was then calibrated to concentration of the compound/adduct by a set of solution mixtures containing known concentrations of the compound/adduct.
The reactivity of NAIA with cysteine in aqueous buffer solution has been investigated by LC-MS experiments (FIGS. 1A-1J). […] Upon addition of N-acetylcysteine methyl ester (250 μM), NAIA-5 reacted quickly and completely with N-acetylcysteine methyl ester within […], as reflected by the diminishment of the peak of NAIA-5 at t=6.20 min with a concomitant growth of a new peak at t=5.60 min in the LC, which is attributable to the cysteine adduct of NAIA-5 based on the MS (FIGS. 1B-1G). […] This highlights the important contribution of aromaticity of indole scaffold to increase electrophilicity of acrylamide warhead for fast and complete cysteine reaction in aqueous buffer solution.
Next, we monitored the reaction between NAIA-amide (10 μM) and N-acetylcysteine methyl ester (250 μM) by LC-MS analysis (FIG. 17A). Complete conversion of NAIA-C5 amide was observed within 40 s as indicated by the disappearance of NAIA-C5 amide peak (t=5.09 min) and emergence of the adduct peat (t=4.80 min) in the LC trace (FIG. 17B). Likewise, the reaction of NAIA-C4 amide proceeded with fast kinetics and was completely consumed in 1 min (FIG. 17C). The calculated rate constant of NAIA-C5 amide and NAIA-C4 amide were 2-fold and 1.2-fold faster than NAIA (FIG. 17D). […] Owning to the excellent reaction rate of NAIA-C5 amide, it was taken forward for further comparative analysis in subsequent experiments.

[3] = compound 10 μM, N-Ac-Cys-OMe 250 μM, PBS/MeOH 4:1

## C#CCCCCNC(=O)CI [IAA, N-Hex-5-ynyl-2-iodoacetamide, reference compound]
HepG2 cells
  fluorescence from labeling of free thiols, solvent control cells: almost no fluorescence can be detected in IAA-labeled cells
  change in cellular fluorescence intensity upon H2O2 pretreatment: cannot see statistically significant changes in fluorescence intensity
[1]
  selectivity toward cysteine over other amino acids: undesired reactivity with serine and lysine
[2]; FIG. 7 legend summary
  reaction kinetics with cysteine (k): ~10^0 M^−1 s^−1
[2]; compound 10 μM, N-Ac-Cys-OMe 250 μM
  cysteine reaction rate (in words): react much slower with cysteine than our NAIAs
[2]; [3]
  compound left unreacted: more than 40%

## C#CCCCCNC(=O)COc1ccc2c(ccn2C(=O)C=C)c1 [NAIA-5]
HepG2 cells
  fluorescence from labeling of free thiols, solvent control cells: strong fluorescence from NAIA-5 labeling
  change in cellular fluorescence intensity upon H2O2 pretreatment: H2O2 dose-dependent decrease in cellular fluorescence intensity
[1]
  selectivity toward cysteine over other amino acids: excellent selectivity toward cysteine over other amino acids; also recorded: Significant decreases in NAIA-4 and NAIA-5 levels were only found in the solution mixture with N-acetyl-L-cysteine methyl ester
[2]; [3]
  time to complete reaction with N-acetylcysteine methyl ester: ≤ 300 s
